Test results published in patent US20200187505A1, “SEED, SOIL, AND PLANT TREATMENT COMPOSITIONS” (RALCO NUTRITION, INC., priority 2017, published 2020).

Test system: soy
Conditions: in-furrow, five grams per acre, versus check; for average soybean seed weight per pot: FIG. 49
Source text: The Generate was applied at a rate one pint per acre. The remaining compositions were applied at a rate of five grams per acre. The soy was planted in May and harvested in October, with fertilizer applications in June and July.

Substance | average soybean seed weight per pot | total average soybean seed weight (FIG. 48)
nickel ammonium citrate | increase seed weight over the check | –
nickel lactate | increase seed weight over the check | increase total average soybean seed weight above the check
